Measured values published in patent US12551573B2, “Compositions and methods for the targeting of PCSK9” (Scribe Therapeutics Inc., priority 2022, dated 2026).

Test system: human PCSK9 locus
Experiment: Secreted PCSK9 by ELISA (normalized to total cell count) in Huh7 cells transfected with mRNA and gRNA
Assay type: cell-based
Settings: paired with LTRP5-ADD-ZIM3 mRNA; for Secreted PCSK9 / Percent reduction in PCSK9 secretion / Average percent reduction in PCSK9 secretion: Huh7 cells, 6 days post-transfection; for Secreted PCSK9: normalized to total cell count; for Percent reduction in PCSK9 secretion: relative to non-targeting gRNA control; for Average percent reduction in PCSK9 secretion: averaged from the two doses
Procedure: To assess PCSK9 secretion, seeded Huh7 cells were transfected with mRNA encoding a catalytically-active CasX 676, dXR1, or LTRP5-ADD-ZIM3 and a gRNA with scaffold 316 and spacer targeting either the B2M or PCSK9 locus. Media supernatant was harvested at 6, 18, 36, and 87 days post-transfection to assess level of PCSK9 secretion by ELISA. Levels of PCSK9 secretion were normalized to total cell count. As an additional control, PCSK9 secretion was also measured in the media supernatant harvested from wells containing untreated, naïve cells.
The following three human hepatocyte cancer cell lines were used in this experiment: HepG2 cells, Hep3B cells, and Huh7 cells. ˜15,000 cells of each cell line were seeded per well; the next day, seeded cells were transfected with mRNA encoding a catalytically-active CasX 676, dXR1, or LTRP5-ADD-ZIM3 and a gRNA with scaffold 316 and spacer targeting either the B2M or PCSK9 locus (see Table 23 for specific spacers and sequences). Media supernatant was harvested at 4 days post-transfection to assess level of PCSK9 secretion by ELISA, and levels of PCSK9 secretion were normalized to total cell count and illustrated in FIGS. 11A-11C. Culturing of treated Huh7 cells continued, and media supernatant was harvested at 14 and 27 days post-transfection for measuring PCSK9 secretion by ELISA. As an additional experimental control, PCSK9 secretion was also measured in the media supernatant harvested from wells containing untreated, naïve cells.
To assess PCSK9 secretion, seeded Huh7 cells were co-transfected with mRNA encoding for LTRP5-ADD-ZIM3 and a gRNA with scaffold 316 and spacer targeting the PCSK9 locus using Lipofectamine™ 3000. Two doses of total RNA input at a 2:1 mass ratio of mRNA to gRNA were used for screening: 50 ng mRNA: 25 ng gRNA and 25 ng mRNA: 12.5 ng gRNA. Media supernatant was harvested at 6 days post-transfection to assess level of PCSK9 secretion by ELISA (Table 74). Levels of PCSK9 secretion were normalized to total cell count. As an additional control, PCSK9 secretion was also measured in the media supernatant harvested from cells transfected with mRNA encoding for mScarlet.

| Substance | Secreted PCSK9 (25 ng mRNA:12.5 ng gRNA) | Percent reduction in PCSK9 secretion (25 ng mRNA:12.5 ng gRNA) | Secreted PCSK9 (50 ng mRNA:25 ng gRNA) | Percent reduction in PCSK9 secretion (50 ng mRNA:25 ng gRNA) | Average percent reduction in PCSK9 secretion | secreted PCSK9: sustained repression through day 36 (Huh7, scaffold 316, compared to spacer 6.1 paired with CasX 676) |
| --- | --- | --- | --- | --- | --- | --- |
| AGAAGAUUCAAUUUGCAAAG (listed as RNA, chemistry not given here) [spacer 6.132, Promoter] | 75.01 ng/mL | 5.29% | 56.68 ng/mL | 31.11% | 12.91% |  |
| GAAUCAAUCCUACUGUGGAC (listed as RNA, chemistry not given here) [spacer 6.143, Promoter] | 22.33 ng/mL | 68.66% | 38.69 ng/mL | 52.97% | 60.81% |  |
| GAAGUCUCACUGGUCAGCAG (listed as RNA, chemistry not given here) [spacer 6.146, Promoter] | 20.34 ng/mL | 71.45% | 40.84 ng/mL | 50.36% | 60.9% |  |
| GAGCAGGCCAUUUCACUCGG (listed as RNA, chemistry not given here) [spacer 6.119, Promoter] | 84.54 ng/mL | 18.66% | 70.37 ng/mL | 14.47% | 2.1% |  |
| TG-06-352: PCSK9-targeting TTC spacer positioned beyond the 1100 bp TSS-proximal window (Table 17) (guide UCCCUCACCAAUUACCCCUC; listed as RNA, chemistry not given here) |  |  |  |  |  | effective repression through day 36 |
| UCGGCCUCCGGGUCUCCCAA (listed as RNA, chemistry not given here) [spacer 6.170, Intron 1] | 72.96 ng/mL | 2.41% | 64.19 ng/mL | 21.98% | 9.79% |  |
| TG-06-345 (guide GCCUCGCCGCGGCACAGGUG; listed as RNA, chemistry not given here) | 85.68 ng/mL | 20.26% | 81.22 ng/mL | 1.28% | 9.49% |  |
| CGGGGUUGGGAGACCCGGAG (listed as RNA, chemistry not given here) [spacer 6.169, Intron 1] | 62.55 ng/mL | 12.2% | 66.39 ng/mL | 19.3% | 15.75% |  |
| CAGUACGUUCCAGGCAUUCA (listed as RNA, chemistry not given here) [spacer 6.171, Intron 1] | 55.95 ng/mL | 21.46% | 52.41 ng/mL | 36.3% | 28.88% |  |
| TG-06-251 (guide CUCCAGGCCCUCCACCCUCC; listed as RNA, chemistry not given here) | 44.62 ng/mL | 37.37% | 36.8 ng/mL | 55.28% | 46.32% |  |
| TG-06-249 (guide AAACCAAAUCGGAACCCACU; listed as RNA, chemistry not given here) | 82.36 ng/mL | 15.61% | 87.36 ng/mL | 6.18% | 10.89% |  |
| GCGCGCCCCUUCACGCGCCC (listed as RNA, chemistry not given here) [spacer 6.159, Exon 1] | 80.84 ng/mL | 13.47% | 53.15 ng/mL | 35.4% | 10.97% |  |
